Source: the OPERA property sets (Mansouri et al. 2018)

| Structure (SMILES) | logP |
| --- | --- |
| O=Nc1c(Br)cc2ccccc2c1O | 2.93 |
| c1ccc2occc2c1 | 2.67 |
| CC(=O)OCC(=O)[C@@]1(O)CC[C@H]2[C@@H]3CCC4=CC(=O)C=C[C@]4(C)[C@H]3[C@@H](O)C[C@@]21C | 2.4 |
| NC(Cc1c[nH]c2ccccc12)C(=O)O (racemic) | -1.05 |
| Cc1nc2ccccc2[nH]1 | 1.43 |
| CC(F)F | 0.75 |
| Cn1cc(C(=O)O)c2ccccc21 | 2 |
| Nc1cccnc1 | 0.11 |
| CC(C)(C)C(=O)C(Oc1ccc(Cl)cc1)n1cncn1 (stereo not given) | 2.77 |
| O=C1C=C(N2CCCC2)C(=O)c2ccccc21 | 2.89 |
| OCCO | -1.36 |
| FC(F)(F)Sc1ccccc1 | 3.57 |
| NCCNC(=O)c1ccccc1 | 0.06 |
| O=c1cc[nH]cn1 | -1.38 |
| CN(C)C=CC#N | 0.47 |
| COc1ccc(C(C)=O)cc1 | 1.74 |
| O=[N+]([O-])c1ccccc1C(F)(F)F | 2.58 |
| CC(C)Br | 2.14 |
| COc1ccc(C(=O)O)cc1OC | 1.61 |
| C=CCN1CC[C@]23CCCC[C@H]2[C@H]1Cc1ccc(O)cc13 | 3.48 |
| O=[N+]([O-])c1ccnc2ccccc12 | 2.06 |
| CN1CC[C@]23CCCC[C@H]2[C@H]1Cc1ccc(O)cc13 | 3.11 |

| Structure (SMILES) | logP |
| --- | --- |
| Cc1cc(Cl)ccc1NC1=NCCN1 | 1.8 |
| COc1c(O)cc(Cl)c(Cl)c1Cl | 3.77 |
| O=C(O)CNC(=O)c1ccccc1O | 0.95 |
| NC(Cc1ccc(O)c(O)c1)C(=O)OCc1cccc(C(F)(F)F)c1 (stereo not given) | 2.29 |
| COC1=CC(=O)c2ccccc2C1=O | 1.35 |
| O=[N+]([O-])c1cccc(Cl)c1 | 2.46 |
| O=C(Nc1ccccc1)NS(=O)(=O)c1ccc(Cl)cc1 | 3.61 |
| CC(=O)C=Cc1ccco1 | 1.35 |
| C=CCc1cccc2c(=O)c(C)c(-c3ccccc3)oc12 | 4.67 |
| NS(=O)(=O)c1cc2c(cc1Cl)NC(CCl)NS2(=O)=O (stereo not given) | 0.11 |
| CCC(C)c1ccc(O)cc1 (stereo not given) | 3.08 |
| CCCCN | 0.97 |
| O=C(Cc1cccs1)N[C@@H]1C(=O)N2C(C(=O)[O-])=C(C[n+]3ccccc3)CS[C@H]12 | -1.62 |
| Cc1ccccc1OC(=O)c1ccc(N)cc1O | 3.14 |
| c1cc2ccsc2cn1 | 1.74 |
| NC(=O)C(Cl)Cl | 0.19 |
| CCCCC(NC(C)=O)C(=O)OC (stereo not given) | 0.79 |
| O=c1[nH]cc(Br)c(=O)[nH]1 | -0.21 |
| CCNC | 0.15 |
| CC(C)c1ccc(OC(=O)c2ccc(N)cc2O)cc1 | 4.12 |
| O=Cc1ccc(OCC(=O)O)cc1 | 0.79 |
| CON(C)C(=O)Nc1ccc(C(C)=O)cc1 | 1.22 |

| Structure (SMILES) | logP |
| --- | --- |
| Clc1ccccc1-c1cccc(Cl)c1Cl | 5.31 |
| CC(=O)c1cccc(O)c1 | 1.39 |
| CC(=O)Oc1cccc(F)c1 | 1.74 |
| O=C(NC(CO)C(O)c1ccc([N+](=O)[O-])cc1)C(Br)Br (stereo not given) | 1.36 |
| CCN(CC)C(=O)c1cccnc1 | 0.33 |
| Cc1ccccc1S(I)=C(N(C)C)N(C)C (stereo not given) | -0.1 |
| CC(=O)NCc1ccccc1 | 0.95 |
| COc1ccc([N+](=O)[O-])cn1 | 1.55 |
| Cc1ncc([N+](=O)[O-])n1CCS(=O)(=O)C(C)C | 0.13 |
| c1ccc(-n2cnnn2)cc1 | 1.09 |
| CC(C)OC(=O)n1cnc(CC(NC(=O)C2CCC(=O)N2)C(=O)N2CCCC2C(N)=O)c1 (stereo not given) | -0.8 |
| O=C1CC(=O)N(c2ccccc2)N1c1ccccc1 | 1.45 |
| Cn1cnc2c1c(=O)[nH]c(=O)n2C | -0.78 |
| CCOP(=O)(Cc1ccc(-c2nc3ccccc3s2)cc1)N1CCCC1=O (stereo not given) | 3 |
| O=C(O)CC[Se]Cc1ccc([N+](=O)[O-])cc1 | 1.63 |
| ON=CCCc1ccccc1 | 1.56 |
| CNCCN(C)C | -0.2 |
| CSCC[C@H](N)C(=O)O | -1.87 |
| CCC(Oc1ccccc1)C(=O)N[C@@H]1C(=O)N2[C@@H]1SC(C)(C)[C@@H]2C(=O)O (stereo not given in full) | 2.65 |
| CCOP(=S)(OCC)SCSc1ccc(Cl)cc1 | 5.33 |
| CCCCC1(c2ccncc2)CCC(=O)NC1=O (stereo not given) | 1.68 |
